Measurements reported in patent publication US20150147350A1, “Method Of Treating Cancer With MEGEA3 Immunotherapeutic With BRAF Inhibitor And/Or MEK Inhibitor” (GlaxoSmithKline LLC, priority 2011, published 2015).

Test system: systemic immunity
Assay: Peripheral blood immune-monitoring in cancer patients treated with BRAF inhibitor
Procedure: 13 patients with tumors carrying a BRAF mutation who underwent treatment with GSK2118436 (the compound of formula (I)), a V600 mutant BRAF specific inhibitor were studied to assess effects of mutant BRAF inhibition on systemic immunity. Peripheral blood immune-monitoring was carried out before and following one or two 28-day cycles of treatment.

Structure (SMILES): CC(C)(C)c1nc(-c2cccc(NS(=O)(=O)c3c(F)cccc3F)c2F)c(-c2ccnc(N)n2)s1 [GSK2118436, N-{3-[5-(2-Amino-4-pyrimidinyl)-2-(1,1-dimethylethyl)-1,3-thiazol-4-yl]-2-fluorophenyl}-2,6-difluorobenzenesulfonamide]
- impact on most immune parameters tested (serum cytokine levels, peripheral blood cell counts, leukocyte subset frequencies, memory CD4+ and CD8+ T-cell recall responses) (13 patients, before and following one or two 28-day cycles of treatment): no detectable impact
- serum TNF-α over the course of treatment (13 patients, one or two 28-day cycles of treatment): slight increase
- negative impact on existing systemic immunity or the de novo generation of tumor-specific T cells (patients, conclusion of the study): no detectable negative impact
- circulating tumor antigen-specific CD8+ T cells (three of the four human leukocyte antigen-A2-positive patients, following BRAF(V600) inhibitor therapy): modest increase
